Results published in US9707201B2 (Leptrex Ltd, priority 2013, dated 2017).
Entries after “also recorded” stand apart in the source; their conditions may differ.

Columns and labels:
[1] = Thiosulfinate half-life in 100% aqueous garlic extract solution by quantitative HPLC; type: physicochemical; details: buffer, 100% aqueous solution, mean (SD), n=3, read-out: Half-Life (hours) at 20° C.
[2] = Thiosulfinate half-life in aqueous ethanol garlic extract solutions by quantitative reverse phase HPLC; type: physicochemical; details: buffer, initial allicin 400 ppm, mean (SD), n=3
Experimental: The solutions were prepared from a single stock aqueous garlic extract solution that was diluted with the appropriate volume of ethanol to produce the 25%, 50% and 75% ethanol garlic aqueous extract solutions. The aqueous stock solution of garlic extract assayed by HPLC was determined to have an allicin content of 1600 ppm (1600 mg allicin in 1000 ml water) and each of the 25%, 50% and 75% ethanol:aqueous dilutions prepared from the aqueous garlic extract stock solution were prepared to provide an initial allicin concentration of 400 ppm.
The decomposition profiles of MeS(O)SAll and AllS(O)SMe (the MA-AM mixture collectively referred to as Analogue-1), AllS(O)SAll (Allicin, Analogue-2) and AllS(O)SPn-(E,Z) (Analogue-3) thiosulfinates were then determined by quantitative reverse phase HPLC. The quantitative HPLC procedure involved determining the relative concentrations of each thiosulfinate in the various solutions at the various ageing temperatures as a function of the time that each solution was stored at a carefully controlled temperature. The initial measurement of the concentration value for each thiosulfinate determined immediately after freshly prepared solutions were prepared provides the 100% thiosulfinate concentration value for the start time (time zero) at which the time-lapse thermal decomposition measurements started to commence.
The quantitative HPLC data recorded for the MA-AM mixture (Analogue-1), allicin (Analogue-2) and AllS(O)SPn-(E,Z) (Analogue-3) established that each thiosulfinate was subject to a first-order exponential decay process when the 25%, 50% and 75% aqueous:ethanol garlic extract solutions were stored (aged) through the temperature range 40-20° C. FIGS. 2-4 show exponential decay profiles obtained for MA-AM (Analogue-1), allicin (Analogue-2) and AllS(O)SPn-(E,Z) (Analogue-3)—FIGS. 2-4 produced from data obtained from the HPLC analyses of the same single sample whose solvent composition was ethanol:water (25:75% by volume) with an initial allicin concentration of 400 ppm. The decay profiles were obtained using ORIGIN version 6.1 software (Origin is a registered trade mark of OriginLab Corporation) software that determined the best fit for decomposition profiles as being first-order exponential decay. From the decomposition profiles shown in FIGS. 2-4 it is possible to interpolate to determine the time required for each thiosulfinate to decompose to 50% of its initial concentration level that had been initially measured at the outset when controlled temperature storage started.

[3] = type: physicochemical; details: buffer
Experimental: 1. Aqueous solutions were prepared using 70 ml water and 6 g McCormick garlic powder, along with methiin or alliin in the proportions shown in table 37 below. The liquid in the top row was prepared from a blend of the following liquids:
2. All solutions were prepared at a temperature of 21° C. with the garlic powder reaction mixture being stirred for 3 hours. At the end of the 3 hour stirred reaction period, the solutions were filtered and immediately assayed by HPLC for their respective A-1, A-2 and A-4 content. These initial concentration values were considered as Time Zero values. 3. After Time Zero thiosulfinate concentrations had been obtained, the solutions were stored at stable temperatures within accurate temperature regulated ovens. 4. Samples of each temperature stored aqueous solution were withdrawn at appropriate time intervals and assayed by HPLC for A-1, A-2 and A-4 content. The decay of the blended liquid can be seen in FIGS. 64, 65 and 66. […] 5. The decomposition profile graphs for MMTSO, MA-AM and Allicin are shown in FIGS. 67, 68 and 69 respectively. These figures were constructed by expressing their respective HPLC peak area integration values measured at 240 nm as a function of sample storage time to obtain Relative % Concentration values. In all cases the best fit was obtained with MicroCal Origin s/w using a first order exponential decay fit. In FIG. 67, the half-life value was obtained by interpolating the time at which the A-4 (MMTSO) peak provides ½ integral value of that initially obtained for A-4 peak at Time Zero. Half-life for A-4 at 55° C. was determined as 51.1 hrs. Similarly in FIG. 68, the half-life value was obtained by interpolating the time at which A-1 (MA-AM) peak provides ½ integral value of that initially obtained for A-1 peak at Time Zero. Half-life for A-1 was determined as 30.2 hrs. Once again, the half-life value was obtained by interpolating the time at which A-2 (Allicin) peak provides ½ integral value of that initially obtained for A-2 peak at Time Zero. Half-life for A-2 is determined as 9.4 hrs.

[4] = Ageing of aqueous FG + P-1 reaction solution at 40° C., thiosulfinate content by HPLC; type: physicochemical; details: for A4 Peak Integration Value × 10^−4: 240 nm
Experimental: Similar studies were conducted with an aqueous solution of analogue 4 (MMTSO) produced by the method of process 6a, as set out in row 4 of table 23.
1. The reaction mixture (12.0 g FG+400 mg P-1+70 ml H2O) was filtered immediately after 4 hour reaction time and served as the stock solution for this study.
2. The filtered solution was divided into 2 portions. One to be stored frozen and the other to be stored at 40° C.
3. The portion of filtered solution to be used to determine the half-life of A4 was placed in a sealed glass bottle that was placed in an oven that provided a stable temperature of 40° C.
4. At irregular intervals a sample of the aqueous solution was withdrawn and analysed by HPLC.
FIGS. 57-60 show the chromatogram obtained after 0, 120, 168 and 672 hours respectively. Their concentrations are set out below in table 32: […]

[5] = system: MRSA clinical isolate QMUL301; assay: Standard agar diffusion test, zones of inhibition; type: cell-based, methicillin-resistant Staphylococcus aureus; details: for Activity of the solution after storage: aqueous solution stored at 17° C. for 56 days
Experimental: The activity of powders and liquids was determined using standard agar diffusion tests. Susceptibility of isolates by measuring the zones of inhibition around a measured amount of the anti-microbial agent.
Bacteria: MRSA clinical isolate QMUL301 was used. Overnight broth cultures in isosensitest broth were prepared. These were diluted to give a final concentration of 10^5 cfu/ml
Media: Isosensitest agar (Oxoid Ltd).
• A broth containing 10^5 cfu/ml was prepared in peptone water. • 0.2 ml was spread over each isosensitest plate. • Plates were air dried and a 6 mm well cut in the centre of the plate. • A volume of 100 ul of liquid or 100 ug of solid was added to each well. • Plates were incubated overnight at 37° C. • The presence of zones of inhibition around a well is indicative of biological activity being present. No zone around the 6 mm well, (as with the negative control) represented no biological activity.

[6] = system: Helicobacter pylori; details: Canizares et al. 2004; cited from earlier work
[7] = system: herpes simplex virus types 1 and 2, parainfluenza virus type 3 and rhinovirus type 2; details: in vitro, compounds present in garlic extracts; cited from earlier work
[8] = aqueous solution, 0 hours aged at 40° C.
[9] = aqueous solution, 120 hours aged at 40° C.
[10] = aqueous solution, 168 hours aged at 40° C.
[11] = aqueous solution, 672 hours aged at 40° C.
[12] = aqueous solution (12.0 g FG + 400 mg P-1 + 70 ml H2O), 0 hours aged at 40° C.

## C=CC[S+]([O-])SC=CC (stereo not shown)
[1]; initial allicin (A-2) concentration 375 ppm
  half-life: 140 h
[1]; initial allicin (A-2) concentration 1500 ppm
  half-life: 77.2 h
[2]; 25% EtOH, 20° C.
  half-life: 134 h
[2]; 25% EtOH, 25° C.
  half-life: 66.1 h
[2]; 25% EtOH, 30° C.
  half-life: 39.5 h
[2]; 25% EtOH, 35° C.
  half-life: 25 h
[2]; 25% EtOH, 40° C.
  half-life: 15.3 h
[2]; 50% EtOH, 20° C.
  half-life: 203 h
[2]; 50% EtOH, 25° C.
  half-life: 121 h
[2]; 50% EtOH, 30° C.
  half-life: 65.6 h
[2]; 50% EtOH, 35° C.
  half-life: 28.8 h
[2]; 50% EtOH, 40° C.
  half-life: 17.3 h
[2]; 75% EtOH, 20° C.
  half-life: 161 h
[2]; 75% EtOH, 25° C.
  half-life: 73.4 h
[2]; 75% EtOH, 30° C.
  half-life: 46.9 h
[2]; 75% EtOH, 35° C.
  half-life: 30.3 h
[2]; 75% EtOH, 40° C.
  half-life: 17.6 h

## CS[S+](C)[O-] (stereo not shown) [Analogue A-4, methyl methyl-thiosulfinate]
[3]
  Half-Life hrs: 51.1 h
[4]; aqueous solution (Red Spot), stored at 40° C. for 672 hours
  A-4 ppm: 1597 ppm
[4]; [8]
  A4 concentration converted from peak integration value: (=2410 ppm)
  A4 Peak Integration Value × 10^−4: 1153
[4]; [9]
  A4 Peak Integration Value × 10^−4: 1074
[4]; [10]
  A4 Peak Integration Value × 10^−4: 1004
[4]; [11]
  A4 Peak Integration Value × 10^−4: (743)
[4]; aqueous solution, 672 hours aged at 40° C., listed as A4
  A4 Peak Integration Value × 10^−4: 764
[5]
  Activity of the solution after storage: remains active
[5]; aqueous solutions
  Antimicrobial activity against MRSA: significant antimicrobial activity; also recorded: at least the same level of antimicrobial activity against MRSA as A-2

## allyl allyl-thiosulfinate [Analogue A-2, reference compound]
[3]
  Half-Life hrs: 9.4 h
[4]; [12]
  concentration (ppm): 47 ppm
[6]
  Inhibition of the in vitro growth of Helicobacter pylori: show inhibition
[5]
  Activity of the solution after storage: lost all measurable activity
[7]
  Virucidal activity: possess virucidal activity

## methyl allyl-thiosulfinate (MA) and its structural isomer allyl methyl-thiosulfinate (AM) [Analogue A-1]
[3]
  Half-Life hrs: 30.2 h
[4]; [12]
  concentration (ppm): 843 ppm
[4]; [9]
  concentration (ppm): 415 ppm
[4]; [10]
  concentration (ppm): 314 ppm
[4]; [11]
  concentration (ppm): 35 ppm
